Source: US6197963A, “Non-peptide peptidomimetics” (The Trustees of the University of Pennsylvania, priority 1998, dated 2001)
Entries after “also recorded” stand apart in the source; their conditions may differ. Where two headings read alike, the source gives them in different places. One block for each compound: values may come before it.

What was measured:
[1] = target: hSSTR3 (Homo sapiens, UniProt P32745); assay: Binding at human SRIF receptor subtype hSSTR3
[2] = target: hSSTR5 (Homo sapiens, UniProt P35346); assay: Binding at human SRIF receptor subtype hSSTR5; conditions: for Ki: TABLE 3, read-out: hSSTR 5 Ki
[3] = target: hSSTR4 (Homo sapiens, UniProt P31391); assay: Binding at human SRIF receptor subtype hSSTR4
[4] = target: hSSTR2 (Homo sapiens, UniProt P30874); assay: Binding at human SRIF receptor subtype hSSTR2
[5] = target: hSSTR1 (Homo sapiens, UniProt P30872); assay: Binding at human SRIF receptor subtype hSSTR1
[6] = test system: SRIF receptors on AtT-20 cells; assay: Binding at SRIF receptors of AtT-20 cells (Examples 104-110, Tables 1-3); design: species or system mouse; key to AtT-20 cells IC50: DNB: Did Not Bind
[7] = test system: five hSSTRs; assay: Profile / average over the five human SRIF receptor subtypes; assay type: binding
[8] = target: T1, human neurokinin-1 receptor (NK1R) (Homo sapiens, UniProt P25103); assay: Displacement of 125I-substance P from human NK1R expressed in COS cells (Example 12); assay type: binding; conditions: 125I-substance P, COS cells (Example 12)
T1 construct: expressed in transfected cells; host or cells: COS cells
Protocol: The affinity of a variety of compounds for the substance P receptor was determined employing the following procedure.
To express the cloned human neurokinin-1 receptor (NK1R) transiently in COS, the cDNA for the human NK1R was cloned into the expression vector pCDM9 which was derived from pCDM8 (Invitrogen) by inserting the ampicillin resistance gene (nucleotide 1973 to 2964 from Bluescript SK+) into the Sac II site. Transfection of 20 μg of the plasmid DNA into 10 million COS cells was achieved by electroporation in 800 μl of the transfection buffer ([…], 1.2 mM MgCl2, 2.4 mM K2 HPO4, 0.6 mM KH2PO4, […], 10 mM HEPES pH 7.4) at 260 V and 950 μF using the IBI Genezapper (IBI, New Haven, Conn.). The cells were incubated in 10% fetal calf serum, 2 mM glutamine, 100 U/ml penicillin-streptomycin, and 90% DMEM media (Gibco, Grand Island, N.Y.) in 5% CO2 at 37° C. for three days before the binding assay.
The binding assay of human NK1R expressed in COS cells is based on the use of ^125 I-substance P (^125 I-SP, from DuPont, Boston, Mass.) as a radioactively labeled ligand which competes with unlabeled substance P or any other ligand for binding to the human NK1R. Monolayer cell cultures of COS were dissociated by the non-enzymatic solution (Specialty Media, Lavallette, N.J.) and resuspended in appropriate volume of the bind buffer (50 mM Tris pH 7.5, 5 mM MnCl2, 150 mM NaCl, 0.04 mg/ml bacitracin, 0.004 mg/ml leupeptin, 0.2 mg/ml BSA, 0.01 mM phosphoramidon) such that 200 μl of the cell suspension would give rise to about 10,000 cpm of specific ^125 I-SP binding (approximately 50,000 to 200,000 cells). In the binding assay, 200 μl of cells were added to a tube containing 20 μl of 1.5 to 2.5 nM of ^125 I-SP and 20 μl of unlabeled substance P or any other test compound. The tubes were incubated at 4° C. or at room temperature for 1 hour with gentle shaking. The bound radioactivity was separated from unbound radioactivity by GF/C filter (Brandel, Gaithersburg, Md.) which was pre-wetted with 0.1 polyethylenimine. The filter was washed with 3 ml of wash buffer (50 Tris pH 7.5, 5 mM MnCl2, 150 mM NaCl) three times and its radioactivity was determined by gamma counter.
A variety of compounds were tested according to the COS cell procedure. The concentration of compound required to inhibit the binding of substance P to the human neurokinin-1 receptor by 50% was measured.

[9] = test system: SRIF receptor; assay: Displacement of 125I-CGP-23996 from SRIF receptor on AtT-20 cells (Example 13); assay type: binding, mouse; conditions: displacement of 125I-CGP-23996, AtT-20 cells (Example 13)
[10] = target: NK-1 receptor (Homo sapiens, UniProt P25103); assay: Binding at the NK-1 receptor (Examples 109-110)
[11] = TABLE 3 (Example 108), read-out: AtT-20 IC50
[12] = TABLE 1 (Example 105), read-out: AtT-20 cells 50 IC
[13] = read-out: IC50 at AtT-20 cell membranes
[14] = read-out: IC50 at the NK-1 receptor

Chain of hSSTR3 (P32745 whole entry): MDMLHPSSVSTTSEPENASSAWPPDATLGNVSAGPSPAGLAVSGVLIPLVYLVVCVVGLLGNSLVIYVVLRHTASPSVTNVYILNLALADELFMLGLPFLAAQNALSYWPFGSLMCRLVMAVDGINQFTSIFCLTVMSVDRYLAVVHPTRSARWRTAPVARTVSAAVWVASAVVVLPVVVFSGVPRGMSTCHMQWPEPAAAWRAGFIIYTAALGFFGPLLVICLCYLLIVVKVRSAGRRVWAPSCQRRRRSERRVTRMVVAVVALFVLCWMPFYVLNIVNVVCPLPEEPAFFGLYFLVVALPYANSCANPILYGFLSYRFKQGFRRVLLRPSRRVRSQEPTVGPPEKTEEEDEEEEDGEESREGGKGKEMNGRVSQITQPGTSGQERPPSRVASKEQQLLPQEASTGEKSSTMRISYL
Chain of hSSTR2 (P30874 whole entry): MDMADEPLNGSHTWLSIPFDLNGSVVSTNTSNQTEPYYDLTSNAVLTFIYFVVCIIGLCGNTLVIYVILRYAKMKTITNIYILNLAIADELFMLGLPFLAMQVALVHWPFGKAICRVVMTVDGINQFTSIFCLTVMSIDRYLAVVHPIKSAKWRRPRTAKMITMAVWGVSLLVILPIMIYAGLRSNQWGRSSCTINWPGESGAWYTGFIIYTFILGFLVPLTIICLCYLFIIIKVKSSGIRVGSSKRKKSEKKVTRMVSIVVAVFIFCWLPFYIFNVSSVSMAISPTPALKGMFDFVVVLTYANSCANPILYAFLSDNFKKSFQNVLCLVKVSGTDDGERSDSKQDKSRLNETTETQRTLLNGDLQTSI
Chain of NK-1 receptor (P25103 whole entry): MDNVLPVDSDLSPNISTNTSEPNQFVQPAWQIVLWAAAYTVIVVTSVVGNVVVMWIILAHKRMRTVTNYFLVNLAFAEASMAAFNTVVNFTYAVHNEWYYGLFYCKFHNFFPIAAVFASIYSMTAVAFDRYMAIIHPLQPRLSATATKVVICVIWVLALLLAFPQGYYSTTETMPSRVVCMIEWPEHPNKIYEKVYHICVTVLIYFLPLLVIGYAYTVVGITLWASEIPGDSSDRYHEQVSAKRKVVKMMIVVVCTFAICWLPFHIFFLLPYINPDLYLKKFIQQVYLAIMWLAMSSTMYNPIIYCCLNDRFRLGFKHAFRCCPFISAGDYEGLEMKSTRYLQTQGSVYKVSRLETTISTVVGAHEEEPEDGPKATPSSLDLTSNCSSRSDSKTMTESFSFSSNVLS
Chain of hSSTR4 (P31391 whole entry): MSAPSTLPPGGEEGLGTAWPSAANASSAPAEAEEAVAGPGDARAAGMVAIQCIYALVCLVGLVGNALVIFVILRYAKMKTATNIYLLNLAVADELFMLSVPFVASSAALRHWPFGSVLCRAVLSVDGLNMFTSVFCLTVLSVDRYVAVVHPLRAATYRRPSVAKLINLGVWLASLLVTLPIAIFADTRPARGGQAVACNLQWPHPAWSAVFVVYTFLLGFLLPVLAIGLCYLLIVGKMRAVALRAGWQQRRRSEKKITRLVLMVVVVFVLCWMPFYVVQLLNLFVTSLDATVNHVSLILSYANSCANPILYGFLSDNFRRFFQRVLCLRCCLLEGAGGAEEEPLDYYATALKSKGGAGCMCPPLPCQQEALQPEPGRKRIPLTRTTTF
Chain of hSSTR1 (P30872 whole entry): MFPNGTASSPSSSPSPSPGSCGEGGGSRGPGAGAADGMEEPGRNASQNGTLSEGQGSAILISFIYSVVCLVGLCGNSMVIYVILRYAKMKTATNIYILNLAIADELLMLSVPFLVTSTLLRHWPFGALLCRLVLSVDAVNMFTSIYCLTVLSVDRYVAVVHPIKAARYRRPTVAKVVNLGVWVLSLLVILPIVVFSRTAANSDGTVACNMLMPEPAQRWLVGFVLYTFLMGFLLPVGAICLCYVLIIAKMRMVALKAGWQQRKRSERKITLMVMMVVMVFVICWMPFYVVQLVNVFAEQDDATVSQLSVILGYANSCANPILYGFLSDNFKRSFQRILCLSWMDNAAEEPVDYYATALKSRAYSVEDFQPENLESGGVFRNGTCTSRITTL
Chain of hSSTR5 (P35346 whole entry): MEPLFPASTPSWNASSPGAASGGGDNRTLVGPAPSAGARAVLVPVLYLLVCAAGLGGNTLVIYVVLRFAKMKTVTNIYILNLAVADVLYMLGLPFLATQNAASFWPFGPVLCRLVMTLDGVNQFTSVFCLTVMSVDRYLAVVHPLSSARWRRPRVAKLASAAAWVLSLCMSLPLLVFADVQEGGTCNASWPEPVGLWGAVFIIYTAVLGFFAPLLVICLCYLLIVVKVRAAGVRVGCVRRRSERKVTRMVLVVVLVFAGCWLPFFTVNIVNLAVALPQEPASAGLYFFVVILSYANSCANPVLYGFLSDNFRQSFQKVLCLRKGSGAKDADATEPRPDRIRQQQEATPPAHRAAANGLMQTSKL
T1 sequence (P25103 whole entry): as the sequence (P25103 whole entry) above

Ki ([1]; TABLE 3, read-out: hSSTR 3 Ki): 900 nM | Ki ([1]; read-out: Ki at SSTR 3): 900 nM | binding of SSTR5 [2]: failed to bind SSTR5 | Ki [2]: > 10000 nM | Ki ([3]; TABLE 3, read-out: hSSTR 4 Ki): 100 nM | Ki ([3]; read-out: Ki at SSTR 4): 100 nM | Ki ([4]; TABLE 3, read-out: hSSTR 2 Ki): 800 nM | Ki ([4]; read-out: Ki at SSTR 2): 800 nM | Ki ([5]; TABLE 3, read-out: hSSTR 1 Ki): 300 nM | Ki ([5]; read-out: Ki at SSTR 1): 300 nM
SMILES: NCCCCCOC[C@@H]1O[C@H](OCCc2c[nH]c3ccccc23)[C@H](OCc2c[nH]cn2)[C@H](OCc2ccccc2)[C@H]1OCc1ccccc1 [IV-72, 2-(1H-indol-3-yl)ethyl 2-O-(4'-methylene-1H-imidazole)-3,4-di-O-benzyl-6-O-(5'-amino-pentyl)-β-L-mannopyranoside]

binding of the NK-1 receptor [10]: did not bind the NK-1 receptors
SMILES: Fc1ccc(COC[C@H]2O[C@@H](OCCc3c[nH]c4ccccc34)[C@H](OCc3ccc4ccccc4c3)[C@@H](OCc3ccccc3)[C@@H]2OCc2ccccc2)cc1 [IV-79, (+)-2-(1H-indol-3-yl)ethyl-3,4-di-O-benzyl-6-O-(4-fluorobenzyl)-2-O-(2-naphthyl)methyl-β-D-glucopyranoside]

binding of the NK-1 receptor [10]: did not bind the NK-1 receptors
SMILES: Fc1ccc(OC[C@H]2O[C@@H](OCCc3c[nH]c4ccccc34)[C@H](OCc3ccc4ccccc4c3)[C@@H](OCc3ccccc3)[C@@H]2OCc2ccccc2)cc1 [IV-81, (+)-2-(1H-indol-3-yl)ethyl-3,4-di-O-benzyl-6-O-(4-fluorophenyl)-2-O-(2-naphthyl)methyl-β-D-glucopyranoside]

binding of the NK-1 receptor [10]: did not bind the NK-1 receptors | IC50 [10, 14]: 209 nM
SMILES: CC(=O)NCCCCCOC[C@H]1O[C@@H](OCCc2c[nH]c3ccccc23)[C@H](OCc2ccc3ccccc3c2)[C@@H](OCc2ccccc2)[C@@H]1OCc1ccccc1 [IV-92, (+)-2-(1H-indol-3-yl)ethyl-6-O-(N-acetyl-5-aminopentyl)-3,4-di-O-benzyl-2-O-(2-naphthyl)methyl-β-D-glucopyranoside]

IC50 ([10]; read-out: affinity at the NK-1 receptor): 27 nM
SMILES: CC(=O)NCCCCCOC[C@H]1O[C@@H](OCCc2c[nH]c3ccccc23)[C@H](OCc2ccccc2)[C@@H](OCc2ccccc2)[C@@H]1O [IV-99, (-)-2-(1H-indol-3-yl)ethyl-6-O-(N-acetyl-5-aminopentyl)-2,3-di-O-benzyl-β-D-glucopyranoside]

binding of the NK-1 receptor [10]: did not bind the NK-1 receptors
SMILES: Fc1ccc(CO[C@H]2[C@H](OCCc3c[nH]c4ccccc34)O[C@H](COCc3ccc4ccccc4c3)[C@@H](OCc3ccccc3)[C@@H]2OCc2ccccc2)cc1 [IV-84, (+)-2-(1H-inclol-3-yl) ethyl-3, li-di-O-Benzyl 2-O-(4-fluorobenzyl)-B-D-glucopyranoside]

More lines, now with the values behind:

SMILES: NCCCCCOC[C@H]1O[C@@H](OCCc2c[nH]c3ccccc23)[C@H](OCc2c[nH]cn2)C[C@@H]1OCc1ccccc1 [IV-60, 2-(1H-Indol-3-yl)ethyl 2-O-(4'-methylene-1H-imidazole)-3-deoxy-4-O-benzyl-6-O-(5'-aminopentyl)-β-D-glucopyranoside]
IC50 [6, 11]: 4100 nM | Ki ([1]; TABLE 3, read-out: hSSTR 3 Ki): 6200 nM | Ki [2]: 4000 nM | Ki ([3]; TABLE 3, read-out: hSSTR 4 Ki): 3000 nM | Ki ([4]; TABLE 3, read-out: hSSTR 2 Ki): 4600 nM | hSSTR subtype affinity profile [7]: atypically high affinity for hSSTR5 | Ki ([5]; TABLE 3, read-out: hSSTR 1 Ki): 6800 nM

SMILES: CO[C@@H]1O[C@H](COCCCCCN)[C@@H](OCc2ccccc2)[C@H](OCc2c[nH]cn2)[C@H]1OCc1ccccc1 [IV-39, Methyl 2,4-di-O-benzyl-3-O-(4'-methylene-1H-imidazole)-6-O-(5'-aminopentyl)-β-D-glucopyranoside]
IC50 [6, 12]: 5600 nM | IC50 [6, 13]: 5600 nM

SMILES: NCCCCCCOC[C@H]1O[C@@H](OCCc2c[nH]c3ccccc23)[C@H](OCc2ccccc2)C[C@@H]1OCc1ccccc1 [III-5b, 2-(1H-Indol-3-yl)ethyl 2,4-Di-O-benzyl-3-deoxy-6-O-(6-aminohexyl)-β-D-glucopyranoside]
IC50 [6, 12]: 7000 nM

SMILES: NCCCCCOC[C@@H]1O[C@H](OCCc2c[nH]c3ccccc23)[C@H](OCc2ccccc2)[C@H](OCc2ccccc2)[C@H]1OCc1ccccc1 [IV-22, 2-(1H-Indol-3-yl)ethyl 2,3,4-tri-O-benzyl-6-O-(5'-aminopentyl)-β-L-mannopyranoside]
Ki ([1]; TABLE 3, read-out: hSSTR 3 Ki): 3300 nM | Ki ([3]; TABLE 3, read-out: hSSTR 4 Ki): 1900 nM | hSSTR subtype affinity profile [7]: high affinities for hSSTR2 and hSSTR4 and a low affinity for SSTR1

SMILES: OC[C@@H]1C[C@H](OCc2ccccc2)[C@@H](OCc2ccccc2)[C@H](OCCc2c[nH]c3ccccc23)O1 [2-Indol-3-yl-ethyl-2,3,-di-O-benzyl-4-deoxy-β-D-glucopyranoside]
IC50 [8]: 400 nM

SMILES: CC(C)[C@@H]1NC(=O)[C@H](CCCCN)NC(=O)[C@@H](Cc2c[nH]c3ccccc23)NC(=O)[C@H](Cc2ccc(O)cc2)NC(=O)[C@H](C)N(C)C(=O)[C@H](Cc2ccccc2)NC1=O [MK 678, reference compound]
IC50 ([9]; read-out: IC50): 60 nM

SMILES: CO[C@@H]1O[C@H](COCCCCCN)[C@@H](OCc2ccccc2)[C@H](OCc2ccccc2)[C@H]1OCc1c[nH]cn1 [IV-30, Methyl 2-O-(4'-methylene-1H-imidazole)-3,4-di-O-benzyl-6-O-(5'-aminopentyl)-β-D-glucopyranoside]
IC50 [6, 12]: > 10000 nM

SMILES: NCCCCCOC[C@@H]1O[C@H](OCCc2c[nH]c3ccccc23)[C@@H](OCc2ccccc2)[C@H](OCc2ccccc2)[C@H]1OCc1ccccc1 [IV-11, 2-(1H-Indol-3-yl)ethyl 2,3,4-tri-O-benzyl-6-O-(5'-aminopentyl)-β-L-glucopyranoside]
IC50 [10, 14]: 150 nM | Ki ([1]; TABLE 3, read-out: hSSTR 3 Ki): 6400 nM | Ki ([3]; TABLE 3, read-out: hSSTR 4 Ki): 2000 nM | hSSTR subtype affinity profile [7]: high affinities for hSSTR2 and hSSTR4 and a low affinity for SSTR1; also recorded: higher relative affinity for SSTR5 and a lesser relative affinity for SSTR3

SMILES: CO[C@@H]1O[C@H](CO)[C@@H](OCc2ccccc2)[C@H](OCc2ccccc2)[C@H]1OCc1ccccc1 [III-46]
IC50 [9]: does not bind | IC50 [8]: 1000 nM

SMILES: CO[C@@H]1O[C@H](COCCCCCN)C[C@H](OCc2ccccc2)[C@H]1OCc1ccccc1 [III-10, Methyl 2,3-Di-O-benzyl-4-deoxy-6-O-(5-aminopentyl)-β-D-glucopyranoside]
activity / affinity at SRIF receptors of AtT-20 cells [6]: inactive | IC50 [6, 12]: > 10000 nM

SMILES: CO[C@@H]1O[C@H](COCCCCCN)[C@@H](OCc2ccccc2)[C@H](OCc2ccccc2)[C@H]1OCc1ccccc1 [III-8a, Methyl 2,3,4-Tri-O-benzyl-6-O-(5-aminopentyl)-β-D-glucopyranoside]
IC50 [6, 12]: 5900 nM | IC50 [6, 11]: 5900 nM | IC50 [6, 13]: 5900 nM | Ki ([1]; TABLE 3, read-out: hSSTR 3 Ki): 3000 nM | Ki [2]: 3000 nM | Ki ([3]; TABLE 3, read-out: hSSTR 4 Ki): 2000 nM | Ki ([4]; TABLE 3, read-out: hSSTR 2 Ki): 4600 nM | hSSTR subtype affinity profile [7]: highest affinity for hSSTR4 | Ki ([5]; TABLE 3, read-out: hSSTR 1 Ki): 2400 nM

SMILES: NCCCCC(N)NC[C@H]1O[C@@H](OCCc2c[nH]c3ccccc23)[C@H](OCc2ccccc2)[C@@H](OCc2ccccc2)[C@@H]1OCc1ccccc1 (stereo partly drawn) [IV-42, 2-(1H-indol-3-yl)ethyl 2,3,4-tri-O-benzyl-6-N-(1',5'-diamino-pentyl)-β-D-glucopyranoside]
activity / affinity at SRIF receptors of AtT-20 cells [6]: did not result in an increase in affinity | AtT-20 cells IC50 ([6]; TABLE 2 (Example 106)): DNB | IC50 [6, 11]: 13000 nM | affinity at SSTR 3 [1]: submicromolar affinities | Ki ([1]; TABLE 3, read-out: hSSTR 3 Ki): 600 nM | Ki [2]: 1300 nM | affinity at SSTR 4 [3]: submicromolar affinities | Ki ([3]; TABLE 3, read-out: hSSTR 4 Ki): 500 nM | affinity at SSTR 2 [4]: submicromolar affinities | Ki ([4]; TABLE 3, read-out: hSSTR 2 Ki): 600 nM | Ki ([7]; average over hSSTRs): 1000 nM | Ki ([5]; TABLE 3, read-out: hSSTR 1 Ki): 2100 nM
